Experimental data as given in the NIST ThermoML archive (doi:10.1016/j.jct.2014.09.005).
Numbers after ± are expanded uncertainties.

What was measured:
[1] = 101.33 kPa, Liquid; for viscosity: Capillary tube (Ostwald / Ubbelohde) method; for mass density: Vibrating tube method
[2] = refractive index (Na D-line) (dimensionless); conditions: 101.33 kPa, Liquid, Standard Abbe refractometry

Row | viscosity ([1]; 293.15 K) | mass density ([1]; 293.15 K) | viscosity ([1]; 298.15 K) | mass density ([1]; 298.15 K) | viscosity ([1]; 303.15 K) | mass density ([1]; 303.15 K) | refractive index ([2]; 293.15 K) | refractive index ([2]; 298.15 K) | refractive index ([2]; 303.15 K) | SMILES
1 | 2.142 ± 0.046 mPa·s | 867.2 ± 0.24 kg/m3 | 1.909 ± 0.041 mPa·s | 862.69 ± 0.24 kg/m3 | 1.699 ± 0.036 mPa·s | 858.12 ± 0.24 kg/m3 | 1.45936 ± 0.00037 | 1.45694 ± 0.00037 | 1.45427 ± 0.00037 | NC1CCCCC1 [cyclohexylamine]
2 | 14.52 ± 0.3 mPa·s | 829.97 ± 0.24 kg/m3 | 11.82 ± 0.25 mPa·s | 826.58 ± 0.24 kg/m3 | 9.738 ± 0.2 mPa·s | 823.13 ± 0.24 kg/m3 | 1.43728 ± 0.00037 | 1.43531 ± 0.00037 | 1.43345 ± 0.00037 | CCCCCCCCCCO [decan-1-ol]
3 | 7.106 ± 0.15 mPa·s | 822.52 ± 0.24 kg/m3 | 5.966 ± 0.13 mPa·s | 818.99 ± 0.24 kg/m3 | 4.841 ± 0.1 mPa·s | 815.4 ± 0.24 kg/m3 | 1.42429 ± 0.00037 | 1.42227 ± 0.00037 | 1.42023 ± 0.00037 | CCCCCCCO [heptan-1-ol]
